Literature values as cited in PubChem BioAssay AID1259409 (Chemical Carcinogenesis Research Information System (CCRIS), 2018).

Tested on: rodent chemically induced tumor inhibition, incidence and multiplicity
Experiment: CCRIS tumor inhibitor studies
Conditions: Promoter: NONE USED

SMILES: O=c1oc2c(O)c(O)cc3c(=O)oc4c(O)c(O)cc1c4c23
- tumour outcome (control, treated, inhibition, significance) (Carcinogen: 2-AMINO-1-METHYL-6-PHENYL-1H-IMIDAZO[4,5-B]PYRID INE, 105650-23-5, Dose [Inhibitor]: 0, 0.1% IN THE DIET FOR 52 WK (STUDY DURATION: 52 WK), Route [Inhibitor]: ORAL, Species: RAT, Strain/Sex: F344/FEMALE, Target Tissue: Type of Lesion: MAMMARY GLAND: ADENOCARCINOMA, Dose [Carcinogen]: 0.02% IN THE DIET FOR 52 WK): 8/20 (40%), 5/19 (26%), 35%, not significant
- tumour outcome (control, treated, inhibition, significance) (Carcinogen: 2-AMINO-1-METHYL-6-PHENYL-1H-IMIDAZO[4,5-B]PYRID INE, 105650-23-5, Dose [Inhibitor]: 0, 0.1% IN THE DIET FOR 52 WK (STUDY DURATION: 52 WK), Route [Inhibitor]: ORAL, Species: RAT, Strain/Sex: F344/FEMALE, Target Tissue: Type of Lesion: MAMMARY GLAND: FIBROADENOMA, Dose [Carcinogen]: 0.02% IN THE DIET FOR 52 WK): 2/20 (10%), 0/19 (0%), 100%, not significant
- tumour outcome (control, treated, inhibition, significance) (Carcinogen: 2-AMINO-1-METHYL-6-PHENYLIMIDAZO[4,5-B]PYRIDINE, 105650-23-5, Dose [Inhibitor]: 0, 0.1% IN DIET FOR 52 WK CONCURRENTLY WITH CARCINOGEN TREATMENT (STUDY DURATION: 52 WK), Route [Inhibitor]: ORAL, Species: RAT, Strain/Sex: F344/FEMALE, Target Tissue: Type of Lesion: LARGE INTESTINE: ADENOMA OR CARCINOMA, Dose [Carcinogen]: 0.02% IN DIET FOR 52 WK): 2/18 (11%), 3/18 (17%), -55%, not significant
- tumour outcome (control, treated, inhibition, significance) (Carcinogen: 2-AMINO-1-METHYL-6-PHENYLIMIDAZO[4,5-B]PYRIDINE, 105650-23-5, Dose [Inhibitor]: 0, 0.1% IN DIET FOR 52 WK CONCURRENTLY WITH CARCINOGEN TREATMENT (STUDY DURATION: 52 WK), Route [Inhibitor]: ORAL, Species: RAT, Strain/Sex: F344/FEMALE, Target Tissue: Type of Lesion: MAMMARY GLAND: ADENOCARCINOMA, Dose [Carcinogen]: 0.02% IN DIET FOR 52 WK): 8/20 (40%), 5/19 (26%), 35%, not significant
- tumour outcome (control, treated, inhibition, significance) (Carcinogen: 3-METHYLCHOLANTHRENE, 56-49-5, Dose [Inhibitor]: 1 UMOL 2/WK FOR 16 WK APPLIED 1 HR PRIOR TO EACH CARCINOGEN TREATMENT (STUDY DURATION: 16 WK), Route [Inhibitor]: DERMAL, Species: MOUSE, Strain/Sex: BALB/FEMALE, Target Tissue: Type of Lesion: SKIN: TUMOR, Dose [Carcinogen]: 1.5 UMOL 2/WK FOR 16 WK): 100%, 50%, 50%, not calculated
- tumour outcome (control, treated, inhibition, significance) (Carcinogen: 3-METHYLCHOLANTHRENE, 56-49-5, Dose [Inhibitor]: 1.0 UMOL APPLIED 1 HR PRIOR TO EACH CARCINOGEN DOSE 2/WK FOR 16 WK (STUDY DURATION: 16 WK), Route [Inhibitor]: DERMAL, Species: MOUSE, Strain/Sex: BALB/FEMALE, Target Tissue: Type of Lesion: SKIN: TUMOR, Dose [Carcinogen]: 1.5 UMOL 2/WK FOR 16 WK): 100%, 50%, 50%, not calculated
- tumour outcome (control, treated, inhibition, significance) (Carcinogen: 3-METHYLCHOLANTHRENE, 56-49-5, Dose [Inhibitor]: 2 UMOL 2/WK FOR 16 WK APPLIED 1 HR PRIOR TO EACH CARCINOGEN TREATMENT (STUDY DURATION: 16 WK), Route [Inhibitor]: DERMAL, Species: MOUSE, Strain/Sex: BALB/FEMALE, Target Tissue: Type of Lesion: SKIN: TUMOR, Dose [Carcinogen]: 1.5 UMOL 2/WK FOR 16 WK): 100%, 40%, 60%, not calculated
- tumour outcome (control, treated, inhibition, significance) (Carcinogen: 3-METHYLCHOLANTHRENE, 56-49-5, Dose [Inhibitor]: 2 UMOL APPLIED 1 HR PRIOR TO EACH CARCINOGEN DOSE 2/WK FOR 16 WK (STUDY DURATION : 16 WK), Route [Inhibitor]: DERMAL, Species: MOUSE, Strain/Sex: BALB/FEMALE, Target Tissue: Type of Lesion: SKIN: TUMOR, Dose [Carcinogen]: 1.5 UMOL 2/WK FOR 16 WK): 100%, 40%, 60%, not calculated
- tumour outcome (control, treated, inhibition, significance) (Carcinogen: 4-(METHYLNITROSAMINO)-1-(3-PYRIDYL)-1-BUTANONE, 64091-91-4, Dose [Inhibitor]: 0, 4 G/KG DIET 2 WK PRIOR TO CARCINOGEN TREATMENT AND CONTINUING FOR STUDY DURATION (STUDY DURATION: 26 MO), Route [Inhibitor]: ORAL, Species: MOUSE, Strain/Sex: STRAIN-A/FEMALE, Target Tissue: Type of Lesion: LUNG: ADENOMA, Dose [Carcinogen]: TOTAL DOSE 9.2 MG/MOUSE ADMINISTERED IN DRINKING WATER): 100%, 96%, 4%, not calculated
- tumour outcome (control, treated, inhibition, significance) (Carcinogen: 4-(METHYLNITROSAMINO)-1-(PYRIDYL)-1-BUTANONE, 64091-91-4, Dose [Inhibitor]: 0, 4 G/KG DIET (37 UMOL/D) BEGINNING 2 WK PRIOR TO CARCINOGEN DOSE AND CONTINUING FOR DURATION OF STUDY (STUDY DURATION:, Route [Inhibitor]: ORAL, Species: MOUSE, Strain/Sex: STRAIN-A/FEMALE, Target Tissue: Type of Lesion: LUNG: ADENOMA, Dose [Carcinogen]: 9.2, 9.4 MG/MOUSE IN DRINKING WATER DURING 7 WK): 28/28 (100%), 24/25 (96%), 4%, not significant
- tumour outcome (control, treated, inhibition, significance) (Carcinogen: 4-(METHYLNITROSOAMINO-1-(PYRIDYL)-1-BUTANONE, 64091-91-4, Dose [Inhibitor]: 0, 4 G/KG DIET BEGINNING 1 D POST CARCINOGEN DOSE AND CONTINUING FOR 16 WK (STUDY DURATION: 16 WK), Route [Inhibitor]: ORAL, Species: MOUSE, Strain/Sex: STRAIN-A/FEMALE, Target Tissue: Type of Lesion: LUNG: ADENOMA, Dose [Carcinogen]: 2 MG IN 0.2 ML OF O.9% NACL ONCE): 100%, 100%, 0%, not significant
